Patent publication US20240336660A1 (priority 2021, published 2024)
*: point of attachment. Decanoyl = CCCCCCCCCC(=O)*; CH2Cl = ClC*

Experiments:
[1] = system: Htet1/SD614G cells; assay type: cell-based, human; conditions: for effect on trafficking of Spike to lysosomes: 20 hours, 50 μM dynasore, 20 μM pitstop2, 1 μM nocodazole, 43 nM bafilomycin
[2] = system: doxycycline-induced Htet1/SW1 cells; assay type: cell-based, human

| Molecule | effect on trafficking of Spike to lysosomes [1] | also measured |
| --- | --- | --- |
| O=C(N/N=C/c1ccc(O)c(O)c1)c1cc2ccccc2cc1O [dynasore] | Neither had a noticeable impact on the trafficking of Spike to lysosomes |  |
| COC(=O)Nc1nc2ccc(C(=O)c3cccs3)cc2[nH]1 [nocodazole] | had no effect |  |
| O=C1NC(=NS(=O)(=O)c2cccc3ccccc23)S/C1=C\c1ccc(Br)cc1 [pitstop2] | Neither had a noticeable impact on the trafficking of Spike to lysosomes |  |
| Decanoyl-RVKR-CH2Cl |  | effect on Spike cell surface expression and furin-mediated processing [2]: reduced Spike's cell surface expression and furin-mediated processing |
| bafilomycin | redirected Spike into the Golgi and plasma membranes, preventing its accumulation in lysosomes |  |
| vacuolin-1 |  | Spike localization after vacuolin-1 treatment ([1]; vacuolin-1 10 μg/ml for three hours): Spike localization to lysosome membranes was also apparent |
